These results are taken from patent US7009051B2, “4-(2-pyridyl) piperazines having 5HT7 receptor agonist activity” (Pfizer Inc, priority 2001, dated 2006).

The structures appear in SMILES notation. Counter-ions that a name gives are not always drawn.

Turning to `c1cncc(COc2cccc(N3CCNCC3)n2)c1` (as salt: HCl) [II, 1-[6-(Pyridin-3-ylmethoxy)-pyridin-2-yl]-piperazine], the melting point was in the range of 141 to 143 °C.

For orientation: melting point means the temperature of the solid-liquid transition.
